“Also recorded” adds a separate entry of the source. Marks after values point to notes of the source that are not given here.
Assays:
male CD-1 mice = assay: Rotarod test, SG-fed mice; type: in vivo, mouse; settings: SG-fed vs control, duration of study
Excerpt: Five-month old male CD-1 mice (30.1-35.7 g, 7.5 cm-8.8 cm) were purchased from Charles River (Wilmington, Mass.). Adult mice were chosen to mimic the mean age of onset of ALS-PDC (Kurland, L. T. (1988a) Trends Neurosci. 11, 51-4; Kurland, L. T., et al. (1994) Amyotrophic lateral sclerosis-parkinsonism-dementia complex on Guam: epidemiologic and etiological perspectives. 109-131). Thirty mice for the SG study were randomly divided into 2 groups (14 control and 16 experimental animals). All animals were housed singly in a virus-free barrier facility in a room maintained at 22° C. under a 12 hour light/dark cycle. The mice were provided ad libitum access to food and water.
The synthetic SG was mixed with finely ground Purina Chow mouse pellets (Mouse Diet™, Purina) to create the experimental pellets with a SG content of 1000 μg per pellet. Dry materials were blended with a sterile silicon spatula. For every 5 g of standard feed, 2.5 mL of doubly-distilled water (dd)H2O was added and the dough was kneaded and round up into pellets. A single sterol glucoside containing pellet was placed in the feeding tray each morning before the addition of regular mouse chow (ad libitum). All experimental pellets were entirely consumed by the mice each day. […] SG feeding was conducted daily for 15 weeks and mice were behaviorally monitored until sacrifice at 35 weeks (time point 1) or 52 weeks (time point 2). […]

[1] = tested on: Activating transcription factor-3; assay: Anti-ATF-3 immunofluorescence; type: in vivo, mouse; settings: for Anti-ATF-3, change: SG-fed vs control
Experimental: Tissue-mounted slides were processed for fluorescence microscopy as follows: Sections were rinsed in coplin jars for 45 minutes at room temperature (RT) in three changes of PBS. Sections were then incubated at RT for 30 minutes in a blocking permeabilization solution made of 5% normal goat serum (NGS), 5% normal rabbit serum (NRS) or 5% BlokHen II (Ayes Labs, Inc., Tigard, Oreg.), 0.05% Triton X-100 and PBS. Subsequently, the blocking solution was tipped off and the slides were rinsed in PBS for 2 minutes. […]

CC[C@H](/C=C/[C@@H](C)[C@H]1CC[C@H]2[C@@H]3CC=C4C[C@@H](O[C@@H]5O[C@H](CO)[C@@H](O)[C@H](O)[C@H]5O)CC[C@]4(C)[C@H]3CC[C@]12C)C(C)C [SG, Stigmasterol β-D-Glucopyranoside]
Rotarod performance (time without fall) (male CD-1 mice): decrease in the time without fall; also recorded: trend of diminished performance | Anti-ATF-3 immunoreactive cells over time, change ([1]; SG-fed group over time (35 to 52 wk)): Anti-ATF-3 immunoreactive cells (SG-fed group over time): −48%*** | Anti-ATF-3, change ([1]; Time-point 1 (35 wk)): Anti-ATF-3: +242% *** | Anti-ATF-3, change ([1]; Time-point 2 (52 wk)): Anti-ATF-3: +101%**
